The target in one assay is human DGKα (Homo sapiens (Human), UniProt P23743). Put plainly: DGKα LIPGLO assay (extruded liposome substrate). The class given is biochemical. In a few lines:
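Human full-length DGKα, His-tagged and produced in Sf9 cells, assayed at 20 nM (4× stock) on extruded liposomes of PS, 0.25 mM DAG and 2.75 mM PC, preincubated 10 min. Reaction started with 300 μM ATP (stock) and ran 1 h in MOPS pH 7.5/MgCl2/CaCl2/DTT buffer.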

The test system of the next assay is naïve human CD8 T cells. Put plainly: cells. The conditions noted are these: Homo sapiens, T-cell, read-out: HuCD8 INFG Normalized EC50, anti-CD3 plus anti-CD28 as baseline; 3 μM Example 40 co-stimulation as 100% activation. As for the experimental part:
Frozen naïve human CD8 T cells were thawed in ATM-V media, incubated for 2 h in 37° C., and counted. The 384-well tissue culture plate was coated overnight at 4° C. with 20 μl anti-human CD3 at 0.05 μg/mL in PBS, which was removed off the plate before 40,000 cells per 40 microliters CD8 T cells with 0.1 μg/mL soluble anti-human CD28 were added to each well. The compounds were transferred using an Echo liquid handler to the cell plate immediately after the cells were plated. After 20 h incubation at 37° C. incubator, 3 microliters per well supernatants transferred into a new 384-well white assay plate for cytokine measurement.
Interferon-γ (IFN-γ) was quantitated using the AlphaLISA kit (Cat #AL217) as described by the manufacturer manual (Perkin Elmer). The counts from each well were converted to IFN-γ concentration […].

For the next assay, the target named is human DGKζ (Homo sapiens (Human), UniProt Q13574). Kind of assay: DGKζ LIPGLO assay (extruded liposome substrate). The format is biochemical. The note with it: extruded liposome substrate; read-out: DGKζ LIPGLO IC50. In a few lines:
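Sf9-derived DGKζ was premixed 10 min with PC/DAG/PS liposomes (100 nm extruded) in MOPS pH 7.5 buffer containing NaCl, MgCl2, CaCl2 and DTT.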

One may read the pIC50 as the negative decadic logarithm of the IC50, by convention in mol/L. As usually defined, the pEC50 is −log10 of the EC50, conventionally taken in molar units.

pEC50, pIC50: −log10 of the molar value. Some results are limits rather than exact numbers.

human DGKα, sequence (P23743 other isoform, or with tags, fused parts or gaps): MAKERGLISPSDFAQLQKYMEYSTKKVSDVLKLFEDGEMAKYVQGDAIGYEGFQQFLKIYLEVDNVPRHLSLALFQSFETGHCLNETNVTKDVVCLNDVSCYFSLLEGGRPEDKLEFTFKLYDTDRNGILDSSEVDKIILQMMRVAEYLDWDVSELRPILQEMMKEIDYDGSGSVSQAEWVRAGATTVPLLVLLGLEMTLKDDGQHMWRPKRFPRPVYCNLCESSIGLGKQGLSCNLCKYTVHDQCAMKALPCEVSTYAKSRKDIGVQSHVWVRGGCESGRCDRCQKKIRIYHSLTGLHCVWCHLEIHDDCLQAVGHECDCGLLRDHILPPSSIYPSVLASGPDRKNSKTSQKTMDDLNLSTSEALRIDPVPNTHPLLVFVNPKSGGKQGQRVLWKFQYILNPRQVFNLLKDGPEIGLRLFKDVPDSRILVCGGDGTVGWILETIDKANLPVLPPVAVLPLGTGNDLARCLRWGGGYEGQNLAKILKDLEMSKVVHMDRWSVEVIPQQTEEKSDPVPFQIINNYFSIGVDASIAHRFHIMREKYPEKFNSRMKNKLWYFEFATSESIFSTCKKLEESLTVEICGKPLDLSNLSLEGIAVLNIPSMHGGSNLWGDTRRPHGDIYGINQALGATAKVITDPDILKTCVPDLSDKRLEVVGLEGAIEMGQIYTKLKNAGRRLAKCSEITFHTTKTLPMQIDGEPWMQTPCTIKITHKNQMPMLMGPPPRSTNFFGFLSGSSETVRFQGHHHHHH
human DGKζ, sequence (Q13574 other isoform, or with tags, fused parts or gaps): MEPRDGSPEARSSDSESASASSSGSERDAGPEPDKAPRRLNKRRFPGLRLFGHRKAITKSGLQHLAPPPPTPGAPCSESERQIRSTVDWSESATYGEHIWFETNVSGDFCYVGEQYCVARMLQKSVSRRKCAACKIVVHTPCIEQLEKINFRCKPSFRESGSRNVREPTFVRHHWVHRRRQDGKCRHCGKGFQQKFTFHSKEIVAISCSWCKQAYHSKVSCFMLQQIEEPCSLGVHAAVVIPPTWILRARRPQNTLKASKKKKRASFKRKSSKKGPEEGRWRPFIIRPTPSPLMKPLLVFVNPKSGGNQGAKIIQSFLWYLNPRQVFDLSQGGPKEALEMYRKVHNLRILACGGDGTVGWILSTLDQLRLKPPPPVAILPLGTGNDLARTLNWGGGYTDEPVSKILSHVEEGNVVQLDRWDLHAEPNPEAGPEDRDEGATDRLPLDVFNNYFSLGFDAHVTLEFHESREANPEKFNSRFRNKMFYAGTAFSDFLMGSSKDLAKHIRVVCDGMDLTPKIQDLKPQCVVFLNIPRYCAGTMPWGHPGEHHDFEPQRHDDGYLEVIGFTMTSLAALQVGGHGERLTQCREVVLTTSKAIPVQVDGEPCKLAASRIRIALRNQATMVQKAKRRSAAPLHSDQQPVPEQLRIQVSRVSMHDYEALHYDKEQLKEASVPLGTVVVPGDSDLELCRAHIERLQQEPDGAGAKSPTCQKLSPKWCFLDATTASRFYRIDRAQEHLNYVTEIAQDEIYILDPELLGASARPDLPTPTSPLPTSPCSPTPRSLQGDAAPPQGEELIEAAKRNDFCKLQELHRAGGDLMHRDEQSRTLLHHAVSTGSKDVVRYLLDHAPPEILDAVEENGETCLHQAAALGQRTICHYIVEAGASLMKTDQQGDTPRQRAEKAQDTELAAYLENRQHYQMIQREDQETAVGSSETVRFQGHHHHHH

Consider `Cn1c(=O)c(C#N)c(N2CCN(C(c3ccccc3)c3ccc(F)cc3)CC2)c2nc(C#N)ccc21` (stereo not drawn) [Example 411, 8-{4-[(4-fluorophenyl)(phenyl)methyl]piperazin-1-yl}-5-methyl-6-oxo-5,6-dihydro-1,5-naphthyridine-2,7-dicarbonitrile], for which the negative logarithm of the IC50 (pIC50) is 5.31 on human DGKα and 5.85 on human DGKζ. For the same compound, the pEC50 in the assay with naïve human CD8 T cells is 7.70.

For the compound `Cn1c(=O)c(C#N)c(N2CCN(C(c3ccccc3)c3ccc(F)cc3)CC2)c2nc(Br)ccc21` (racemic) [Example 430, 6-bromo-4-{4-[(4-fluorophenyl)(phenyl)methyl]piperazin-1-yl}-1-methyl-2-oxo-1,2-dihydro-1,5-naphthyridine-3-carbonitrile], the pIC50 at human DGKα was 5.72; on human DGKζ, 5.52. In addition, in the assay with naïve human CD8 T cells, the pEC50 was 6.52.

For the compound `COc1ccc2c(n1)c(N1CCN(C(c3ccc(F)cc3)c3cccnc3OC)CC1)c(C#N)c(=O)n2C` (stereo not drawn) [Example 396, 4-{4-[(4-fluorophenyl)(2-methoxypyridin-3-yl)methyl]piperazin-1-yl}-6-methoxy-1-methyl-2-oxo-1,2-dihydro-1,5-naphthyridine-3-carbonitrile], the negative-log IC50 (pIC50) was 4.68 on human DGKα and 5.24 on human DGKζ. In addition, in the assay with naïve human CD8 T cells, the pEC50 was 5.58.

On to `Cn1c(=O)c(C#N)c(N2CCN(C(c3ccc(F)cc3)c3ccccn3)CC2)c2nc(C#N)ccc21` (stereo not drawn) [Example 400, 8-{4-[(4-fluorophenyl)(pyridin-2-yl)methyl]piperazin-1-yl}-5-methyl-6-oxo-5,6-dihydro-1,5-naphthyridine-2,7-dicarbonitrile], for which the negative logarithm of the IC50 (pIC50) at human DGKα is 5.27; on human DGKζ, 5.68. In addition, the pEC50 in the assay on naïve human CD8 T cells was 7.30.

For the compound `COc1ccc2c(n1)c(N1CCN(C(c3ccc(Cl)cc3)c3ccc(Cl)cc3)CC1)c(C#N)c(=O)n2C` [Example 395, 4-{4-[bis(4-chlorophenyl)methyl]piperazin-1-yl}-6-methoxy-1-methy-2-oxo-1,2-dihydro-1,5-naphthyridine-3-carbonitrile], the values for the pIC50 against human DGKα and on human DGKζ were 4.85 and 5.52, respectively. In the assay on naïve human CD8 T cells, the pEC50 is 7.05.

Turning to `COc1cccnc1C(c1ccc(F)cc1)N1CCN(c2c(C#N)c(=O)n(C)c3ccc(C#N)nc23)CC1` (stereo not drawn) [Example 410, 8-{4-[(4-fluorophenyl)(3-methoxypyridin-2-yl)methyl]piperazin-1-yl}-5-methyl-6-oxo-5,6-dihydro-1,5-naphthyridine-2,7-dicarbonitrile], the pIC50 was 5.27 at human DGKα and 5.66 at human DGKζ. Moreover, the pEC50 in the assay on naïve human CD8 T cells was 7.05.

For `COc1ccc2c(n1)c(N1CCN(C(c3ccc(F)cc3)c3ccccn3)CC1)c(C#N)c(=O)n2C` (stereo not drawn) [Example 403, 4-{4-[(4-fluorophenyl)(pyridin-2-yl)methyl]piperazin-1-yl}-6-methoxy-1-methyl-2-oxo-1,2-dihydro-1,5-naphthyridine-3-carbonitrile], the pIC50 was 4.59 on human DGKα and 5.24 at human DGKζ. Besides, the pEC50 with naïve human CD8 T cells is 5.83.

For `COc1ccc2c(n1)c(N1CCN(C(c3ncccn3)c3ccc(F)cc3OC)CC1)c(C#N)c(=O)n2C` (stereo not drawn) [Example 401, 4-{4-[(4-fluoro-2-methoxyphenyl)(pyrimidin-2-yl)methyl]piperazin-1-yl}-6-methoxy-1-methyl-2-oxo-1,2-dihydro-1,5-naphthyridine-3-carbonitrile], the pIC50 at human DGKα is 4.09; at human DGKζ, 5.12. Also, the negative logarithm of the EC50 (pEC50) in the assay with naïve human CD8 T cells is 5.00.

Turning to `Cn1c(=O)c(C#N)c(N2CCN(C(c3ccc(Cl)cc3)c3ccc(Cl)cc3)CC2)c2nc(C#N)ccc21` [Example 394, 8-{4-[bis(4-chlorophenyl)methyl]piperazin-1-yl}-5-methyl-6-oxo-5,6-dihydro-1,5-naphthyridine-2,7-dicarbonitrile], the negative-log IC50 (pIC50) against human DGKα is 5.41; on human DGKζ, 5.92. The pEC50 in the assay on naïve human CD8 T cells was 8.00.

For `Cn1c(=O)c(C#N)c(N2CCN(C(c3ccc(Cl)cc3)c3ccc(Cl)cc3)CC2)c2nc(Br)ccc21` [Example 393, 4-{4-[bis(4-chlorophenyl)methyl]piperazin-1-yl}-6-bromo-1-methyl-2-oxo-1,2-dihydro-1,5-naphthyridine-3-carbonitrile], the pIC50 at human DGKα was 5.05; at human DGKζ, below 3.62. For the same compound, in the assay with naïve human CD8 T cells, the pEC50 is 6.77.

As to `Cn1c(=O)c(C#N)c(N2CCN([C@@H](c3ccccc3)c3ccc(Cl)cc3)CC2)c2nc(C#N)ccc21` [Example 414, 8-{4-[(S)-(4-chlorophenyl)(phenyl)methyl]piperazin-1-yl}-5-methyl-6-oxo-5,6-dihydro-1,5-naphthyridine-2,7-dicarbonitrile], the pIC50 against human DGKα is 5.05; on human DGKζ, 5.82. Also, the pEC50 in the assay with naïve human CD8 T cells is 6.80.

As for `Cc1ccc2c(n1)c(N1CCN(C3CCOc4ccccc43)CC1)c(C#N)c(=O)n2C` (stereo not drawn) [Example 253, 4-[4-(3,4-dihydro-2H-1-benzopyran-4-yl)piperazin-1-yl]-1,6-dimethyl-2-oxo-1,2-dihydro-1,5-naphthyridine-3-carbonitrile], the negative logarithm of the IC50 (pIC50) at human DGKα is 4.40; at human DGKζ, 5.13. In addition, the pEC50 in the assay on naïve human CD8 T cells was 5.60.

In the case of `Cn1c(=O)cc(N2CCN(C(c3ccc(F)cc3)c3ccc(F)cc3)CC2)c2nc(C#N)ccc21` [Example 432, 8-{4-[bis(4-fluorophenyl)methyl]piperazin-1-yl}-5-methyl-6-oxo-5,6-dihydro-1,5-naphthyridine-2-carbonitrile], the values for the pIC50 on human DGKα and on human DGKζ were below 3.62 and 5.27, respectively. In addition, the negative-log EC50 (pEC50) in the assay on naïve human CD8 T cells is 7.22.

Turning to `COc1ccc2c(n1)c(N1CCN(C(c3ccc(F)cc3)c3ncccc3OC)CC1)c(C#N)c(=O)n2C` (stereo not drawn) [Example 397, 4-{4-[(4-fluorophenyl)(3-methoxypyridin-2-yl)methyl]piperazin-1-yl}-6-methoxy-1-methyl-2-oxo-1,2-dihydro-1,5-naphthyridine-3-carbonitrile], the pIC50 is 4.80 at human DGKα and 4.89 at human DGKζ. For the same compound, the pEC50 with naïve human CD8 T cells was 5.35.

Regarding `COCCC(C)N1CCN(c2c(C#N)c(=O)n(C)c3ccc(C)nc23)CC1` (stereo not drawn) [Example 252, 4-[4-(4-methoxybutan-2-yl)piperazin-1-yl]-1,6-dimethyl-2-oxo-1,2-dihydro-1,5-naphthyridine-3-carbonitrile], the figures for the pIC50 on human DGKα and on human DGKζ were below 3.62 and 3.70, respectively. Besides, in the assay with naïve human CD8 T cells, the negative-log EC50 (pEC50) was 5.00.

In the case of `Cc1ccc2c(n1)c(N1CCN(C(c3ccc(F)cc3)c3ccccn3)CC1)c(C#N)c(=O)n2C` (stereo not drawn) [Example 256, 4-{4-[(4-fluorophenyl)(pyridin-2-yl)methyl]piperazin-1-yl}-1,6-dimethyl-2-oxo-1,2-dihydro-1,5-naphthyridine-3-carbonitrile], the pIC50 on human DGKα is 5.57; at human DGKζ it was 5.00. Besides, the pEC50 in the assay with naïve human CD8 T cells is 6.62.

The values are drawn from US11866430B2, “Naphthyridinone compounds useful as T cell activators” (priority 2018, dated 2024).
